The source of these data is ChEMBL document CHEMBL1132353, “New 4-point pharmacophore method for molecular similarity and diversity applications: overview of the method and applications, including a novel approach to the design of combinatorial libraries containing privileged substructures” (J Med Chem, 1999).

For one assay, the target named is Prothrombin (Homo sapiens, UniProt P00734).
A further assay concerns the target Coagulation factor X (Homo sapiens, UniProt P00742). In words: Inhibitory activity against Coagulation factor Xa.

Structures are written as SMILES.

For orientation: Ki means the equilibrium dissociation constant of an inhibitor or competing ligand from its target. Read a low Ki as higher affinity.

Chain of Coagulation factor X (P00742 41-179 limits assumed): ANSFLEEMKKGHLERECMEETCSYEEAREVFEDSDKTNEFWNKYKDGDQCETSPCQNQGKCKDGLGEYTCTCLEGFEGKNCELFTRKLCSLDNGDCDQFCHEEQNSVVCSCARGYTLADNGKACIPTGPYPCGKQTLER
Chain of Coagulation factor X (P00742 235-488 limits assumed): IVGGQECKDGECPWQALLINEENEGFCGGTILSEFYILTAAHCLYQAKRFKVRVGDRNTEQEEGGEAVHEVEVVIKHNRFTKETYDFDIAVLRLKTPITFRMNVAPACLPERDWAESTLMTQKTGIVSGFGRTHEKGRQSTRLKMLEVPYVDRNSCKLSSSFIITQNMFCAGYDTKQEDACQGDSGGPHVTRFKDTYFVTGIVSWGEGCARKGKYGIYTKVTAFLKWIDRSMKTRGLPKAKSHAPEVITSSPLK
Description for Prothrombin: Inhibitory activity against thrombin

In turn, `C[C@H]1CNc2cc(S(=O)(=O)N[C@H](CCCNC(=N)N)C(=O)N3CCCCC3C(=O)O)ccc2C1` (stereo partly drawn) had a Ki on Prothrombin of 0.019 µM. As to `CC(=N)N1CCC(Oc2ccc(C(Cc3ccc4ccc(C(=N)N)cc4c3)C(=O)O)cc2)CC1` (stereo not drawn), at Coagulation factor X, the affinity, expressed as Ki, was 0.013 µM. Take `O=S(=O)(Nc1cccc(OCCNc2ccncc2)c1)c1ccccc1`: at Prothrombin, the Ki was 0.023 µM.
